Measured values: PubChem BioAssay (NCI)
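Each compound was tested at five concentrations against cells in 96-well plates for 48 hours. GI50 = concentration required for 50% inhibition of growth. At the TGI there is no net growth.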

How the values were obtained:
Test in all cases: NCI-60 cell line screen, 48 h
HCT-116 colon = test system: HCT-116 colon
CAKI-1 renal = test system: CAKI-1 renal
OVCAR-8 ovarian = test system: OVCAR-8 ovarian
MOLT-4 leukemia = test system: MOLT-4 leukemia
OVCAR-4 ovarian = test system: OVCAR-4 ovarian
PC-3 prostate = test system: PC-3 prostate
A498 renal = test system: A498 renal
UACC-62 melanoma = test system: UACC-62 melanoma
SNB-75 CNS = test system: SNB-75 CNS
SF-295 CNS = test system: SF-295 CNS

COC(C[C@H]1CCCC[C@]1(O)/C(=C\CO[Si](C(C)C)(C(C)C)C(C)C)Sc1ccccc1)OC
TGI (HCT-116 colon): 85.1 µM
TGI (CAKI-1 renal): > 100 µM
TGI (OVCAR-8 ovarian): > 100 µM
TGI (MOLT-4 leukemia): 38.8 µM
TGI (OVCAR-4 ovarian): > 100 µM
TGI (PC-3 prostate): > 100 µM
TGI (A498 renal): > 100 µM
TGI (UACC-62 melanoma): > 100 µM
TGI (SNB-75 CNS): 98.9 µM
TGI (SF-295 CNS): > 100 µM

c1cc2c3c(c1)[C@@H]1O[C@@H]1c1cccc(c1-3)[C@@H]1O[C@H]21
TGI (HCT-116 colon): 38.5 µM
TGI (CAKI-1 renal): 32.7 µM
TGI (OVCAR-8 ovarian): 46.2 µM
TGI (MOLT-4 leukemia): > 100 µM
TGI (OVCAR-4 ovarian): 56.3 µM
TGI (PC-3 prostate): 51.9 µM
TGI (A498 renal): > 100 µM
TGI (UACC-62 melanoma): 33.3 µM
TGI (SNB-75 CNS): 70.1 µM
TGI (SF-295 CNS): > 100 µM

CCC(=O)Nc1ccc(N2C(=O)/C(=C/c3ccc(O)c(OC)c3)N=C2c2ccccc2)cc1
TGI (HCT-116 colon): > 100 µM
TGI (CAKI-1 renal): > 100 µM
TGI (OVCAR-8 ovarian): > 100 µM
TGI (MOLT-4 leukemia): > 100 µM
TGI (OVCAR-4 ovarian): > 100 µM
TGI (PC-3 prostate): 60.8 µM
TGI (A498 renal): 36.6 µM
TGI (UACC-62 melanoma): > 100 µM
TGI (SNB-75 CNS): > 100 µM
TGI (SF-295 CNS): > 100 µM

CC(C)Oc1cc2c(cc1O)CC[C@@H]1[C@@H]2CC[C@]2(C)[C@@H](O)CC[C@@H]12
TGI (HCT-116 colon): 14.7 µM
TGI (CAKI-1 renal): > 20 µM
TGI (OVCAR-8 ovarian): 60.6 µM
TGI (MOLT-4 leukemia): 30.2 µM
TGI (OVCAR-4 ovarian): 61.1 µM
TGI (PC-3 prostate): > 67.4 µM
TGI (A498 renal): 26.9 µM
TGI (UACC-62 melanoma): 13.2 µM
TGI (SNB-75 CNS): 53.1 µM
TGI (SF-295 CNS): 11.8 µM

CCCOC1OC(CS(=O)(=O)O)C(OC(C)=O)C(OC(C)=O)C1OC(C)=O (configuration not stated)
TGI (HCT-116 colon): > 100 µM
TGI (CAKI-1 renal): > 100 µM
TGI (OVCAR-8 ovarian): > 100 µM
TGI (MOLT-4 leukemia): > 100 µM
TGI (OVCAR-4 ovarian): > 100 µM
TGI (PC-3 prostate): > 100 µM
TGI (A498 renal): > 100 µM
TGI (UACC-62 melanoma): > 100 µM
TGI (SNB-75 CNS): > 100 µM
TGI (SF-295 CNS): > 100 µM

C#Cc1cccc(Nc2ncnc3cc(OCCOC)c(OCCOC)cc23)c1
TGI (HCT-116 colon): > 100 µM
TGI (CAKI-1 renal): 10 µM
TGI (OVCAR-8 ovarian): > 93.3 µM
GI50 (MOLT-4 leukemia): 24.2 µM
TGI (MOLT-4 leukemia): > 100 µM
TGI (OVCAR-4 ovarian): > 100 µM
TGI (PC-3 prostate): > 100 µM
GI50 (A498 renal): 2.19 µM
TGI (A498 renal): 45.8 µM
TGI (UACC-62 melanoma): 38 µM
TGI (SNB-75 CNS): 46.7 µM
TGI (SF-295 CNS): 67.6 µM

O=C1NC(=S)N/C1=C\c1ccc(Sc2ccccc2C(=O)O)s1
TGI (HCT-116 colon): > 100 µM
TGI (CAKI-1 renal): > 100 µM
TGI (OVCAR-8 ovarian): > 100 µM
TGI (MOLT-4 leukemia): > 100 µM
TGI (OVCAR-4 ovarian): > 100 µM
TGI (PC-3 prostate): > 100 µM
TGI (A498 renal): > 100 µM
TGI (UACC-62 melanoma): > 100 µM
TGI (SNB-75 CNS): > 100 µM
TGI (SF-295 CNS): > 100 µM

O=C(O)Cn1ncn(NC(=O)Cc2ccccc2)c1=S
TGI (HCT-116 colon): > 10 µM
TGI (CAKI-1 renal): > 10 µM
TGI (OVCAR-8 ovarian): > 10 µM
TGI (MOLT-4 leukemia): > 10 µM
TGI (OVCAR-4 ovarian): > 10 µM
TGI (PC-3 prostate): > 10 µM
TGI (A498 renal): > 10 µM
TGI (UACC-62 melanoma): > 10 µM
TGI (SNB-75 CNS): > 10 µM
TGI (SF-295 CNS): > 10 µM

Cc1ccc(C2(N3CCOCC3)OC(C)(C)c3cccc4cccc2c34)cc1 (configuration not stated)
TGI (HCT-116 colon): 36.9 µM
TGI (CAKI-1 renal): 50.1 µM
TGI (OVCAR-8 ovarian): 33.6 µM
TGI (MOLT-4 leukemia): > 100 µM
TGI (OVCAR-4 ovarian): 31.1 µM
TGI (PC-3 prostate): 34.2 µM
TGI (A498 renal): 32.9 µM
TGI (UACC-62 melanoma): 27.8 µM
TGI (SNB-75 CNS): 30.5 µM
TGI (SF-295 CNS): 33.6 µM

CCOc1ccccc1N=NC1C(=O)N(C(=O)CC(=O)Nc2ccccc2OC)N=C1C (configuration not stated)
TGI (HCT-116 colon): > 100 µM
TGI (CAKI-1 renal): > 100 µM
TGI (OVCAR-8 ovarian): > 100 µM
TGI (MOLT-4 leukemia): > 100 µM
TGI (OVCAR-4 ovarian): > 100 µM
TGI (PC-3 prostate): > 100 µM
TGI (A498 renal): > 100 µM
TGI (UACC-62 melanoma): > 100 µM
TGI (SNB-75 CNS): 42.1 µM
TGI (SF-295 CNS): 55.6 µM
